Experiments:
Assay type in all cases: in vivo
Bemisia tabaci = Bemisia tabaci (cotton white fly) feeding/contact activity, cotton leaf discs; details: foliar, 144 h, application rate 200 ppm, adult white flies, 6 days after incubation
Experimental: Example B1: Bemisia tabaci (Cotton White Fly): Feeding/Contact Activity
Cotton leaf discs were placed on agar in 24-well microtiter plates and sprayed with aqueous test solutions prepared from 10′000 ppm DMSO stock solutions. After drying the leaf discs were infested with adult white flies. The samples were checked for mortality 6 days after incubation.

Diabrotica Balteata = assay: Diabrotica balteata (corn root worm), maize sprouts, L2 larvae; details: 96 h, application rate 200 ppm, 4 days after infestation, read-out: effect in at least one of the two categories (mortality or growth inhibition)
Experimental: Example B2: Diabrotica Balteata (Corn Root Worm)
Maize sprouts placed onto an agar layer in 24-well microtiter plates were treated with aqueous test solutions prepared from 10′000 ppm DMSO stock solutions by spraying. After drying, the plates were infested with L2 larvae (6 to 10 per well). The samples were assessed for mortality and growth inhibition in comparison to untreated samples 4 days after infestation.

Euschistus heros = Euschistus heros (neotropical brown stink bug), soybean leaves, N2 nymphs; details: 120 h, application rate 200 ppm, 5 days after infestation, read-out: effect in at least one of the two categories (mortality or growth inhibition)
Experimental: Example B3: Euschistus heros (Neotropical Brown Stink Bug)
Soybean leaves on agar in 24-well microtiter plates were sprayed with aqueous test solutions prepared from 10′000 ppm DMSO stock solutions. After drying the leaves were infested with N2 nymphs. The samples were assessed for mortality and growth inhibition in comparison to untreated samples 5 days after infestation.

[1] = tested on: Frankliniella occidentalis; assay: Frankliniella occidentalis (western flower thrips) feeding/contact activity, sunflower leaf discs; details: foliar, 168 h, application rate 200 ppm, population of mixed ages, 7 days after infestation
Experimental: Example B4: Frankliniella occidentalis (Western Flower Thrips): Feeding/Contact Activity
(§1) Sunflower leaf discs were placed on agar in 24-well microtiter plates and sprayed with aqueous test solutions prepared from 10′000 DMSO stock solutions. After drying the leaf discs were infested with a Frankliniella population of mixed ages. The samples were assessed for mortality 7 days after infestation.

Myzus persicae [2] = assay: Myzus persicae (green peach aphid) feeding/contact activity, sunflower leaf discs; details: foliar, 144 h, application rate 200 ppm, 6 days after infestation
Experimental: Example B5: Myzus persicae (Green Peach Aphid): Feeding/Contact Activity
Sunflower leaf discs were placed onto agar in a 24-well microtiter plate and sprayed with aqueous test solutions prepared from 10′000 ppm DMSO stock solutions. After drying, the leaf discs were infested with an aphid population of mixed ages. The samples were assessed for mortality 6 days after infestation.

Myzus persicae [3] = assay: Myzus persicae (green peach aphid) systemic activity, pea seedling roots; details: 144 h, test rate 24 ppm, 6 days after placing seedlings into test solutions
Plutella xylostella = Plutella xylostella (diamond back moth), artificial diet, L2 larvae; details: 120 h, application rate 200 ppm, 5 days after infestation, read-out: effect in at least one of the two categories (mortality or growth inhibition)
Experimental: Example B7: Plutella xylostella (Diamond Back Moth)
24-well microtiter plates with artificial diet were treated with aqueous test solutions prepared from 10′000 ppm DMSO stock solutions by pipetting. After drying, the plates were infested with L2 larvae (10 to 15 per well). The samples were assessed for mortality and growth inhibition in comparison to untreated samples 5 days after infestation.

Spodoptera littoralis [4] = assay: Spodoptera littoralis (Egyptian cotton leaf worm), cotton leaf discs, L1 larvae; details: foliar, 72 h, application rate 200 ppm, L1 larvae on cotton leaf discs, 3 days after infestation
Experimental: Example B8: Spodoptera littoralis (Egyptian Cotton Leaf Worm)
Cotton leaf discs were placed onto agar in 24-well microtiter plates and sprayed with aqueous test solutions prepared from 10′000 ppm DMSO stock solutions. After drying the leaf discs were infested with five L1 larvae. The samples were assessed for mortality, anti-feeding effect, and growth inhibition in comparison to untreated samples 3 days after infestation. Control of Spodoptera littoralis by a test sample is given when at least one of the categories mortality, anti-feedant effect, and growth inhibition is higher than the untreated sample.

Spodoptera littoralis [5] = assay: Spodoptera littoralis (Egyptian cotton leaf worm), uptake by lettuce roots from agar, eggs; details: 144 h, test rate 12.5 ppm, lettuce root uptake, 6 days after infestation, read-out: effect in at least one of the three categories (mortality, anti-feeding, or growth inhibition)
Text: Example B9: Spodoptera littoralis (Egyptian Cotton Leaf Worm)
Test compounds were applied by pipette from 10′000 ppm DMSO stock solutions into 24-well plates and mixed with agar. Lettuce seeds were placed onto the agar and the multi well plate was closed by another plate which contained also agar. After 7 days the compound was absorbed by the roots and the lettuce grew into the lid plate. The lettuce leaves were then cut off into the lid plate. Spodoptera eggs were pipetted through a plastic stencil onto a humid gel blotting paper and the lid plate was closed with it. The samples were assessed for mortality, anti-feedant effect and growth inhibition in comparison to untreated samples 6 days after infestation.

Thrips tabaci = Thrips tabaci (onion thrips) feeding/contact activity, sunflower leaf discs; details: foliar, 144 h, application rate 200 ppm, population of mixed ages, 6 days after infestation
Experimental: Example B11: Thrips tabaci (Onion Thrips) Feeding/Contact Activity
as §1, with “10′000 ppm” for “10′000”, “thrips” for “Frankliniella”, “6” for “7”

Aedes aegypti = Aedes aegypti (yellow fever mosquito), dry deposit in 12 well plates, adult females; details: application rate 200 ppm in ethanol, after 48 h and/or 24 h
Experimental: Example B12: Aedes aegypti (Yellow Fever Mosquito)
(§2) Test solutions, at an application rate of 200 ppm in ethanol, were applied to 12 well tissue culture plates. Once the deposits were dry, five, two to five day old adult female Aedes aegypti were added to each well, and sustained with a 10% sucrose solution in a cotton wool plug. Assessment of knockdown was made one hour after introduction, and mortality was assessed at 24 and 48 hours after introduction.

Anopheles stephensi = Anopheles stephensi (Indian malaria mosquito), dry deposit in 12 well plates, adult females; details: application rate 200 ppm in ethanol, after 48 h and/or 24 h
Experimental: Example B13: Anopheles stephensi (Indian Malaria Mosquito)
as §2, with “Anopheles stephensi” for “Aedes aegypti”

Tetranychus urticae = Tetranychus urticae (two-spotted spider mite) feeding/contact activity, bean leaf discs; details: foliar, 192 h, application rate 200 ppm, mixed population (mobile stages), 8 days after infestation
Experimental: Example B10: Tetranychus urticae (Two-Spotted Spider Mite): Feeding/Contact Activity
Bean leaf discs on agar in 24-well microtiter plates were sprayed with aqueous test solutions prepared from 10′000 ppm DMSO stock solutions. After drying the leaf discs were infested with a mite population of mixed ages. The samples were assessed for mortality on mixed population (mobile stages) 8 days after infestation.

CCS(=O)(=O)c1cc(C(F)(F)F)cnc1-c1nc2cc(SC(F)(F)F)ncc2n1C [Compound P10, 2-[3-ethylsulfonyl-5-(trifluoromethyl)-2-pyridyl]-3-methyl-6-(trifluoromethylsulfanyl)imidazo[4,5-c]pyridine]
≥ 80%: mortality at 200 ppm (Bemisia tabaci) | percent effect (mortality or growth inhibition) at 200 ppm (Diabrotica Balteata) | percent effect (mortality or growth inhibition) at 200 ppm (Euschistus heros) | mortality at 200 ppm [1] | mortality at 200 ppm (Myzus persicae [2]) | mortality at 24 ppm (Myzus persicae [3]) | percent effect (mortality or growth inhibition) at 200 ppm (Plutella xylostella) | percent control (mortality, anti-feedant effect or growth inhibition) at 200 ppm (Spodoptera littoralis [4]) | percent effect (mortality, anti-feeding or growth inhibition) at 12.5 ppm (Spodoptera littoralis [5]) | mortality at 200 ppm (Thrips tabaci) | pest or weed control at 200 ppm (Aedes aegypti) | pest or weed control at 200 ppm (Anopheles stephensi)

CCS(=O)(=O)c1cc(C(F)(F)F)cnc1-c1nc2cc(S(=O)(=O)C(F)(F)F)ncc2n1C [Compound P8, 2-[3-ethylsulfonyl-5-(trifluoromethyl)-2-pyridyl]-3-methyl-6-(trifluoromethylsulfonyl) imidazo[4,5-c]pyridine]
≥ 80%: mortality at 200 ppm (Bemisia tabaci) | percent effect (mortality or growth inhibition) at 200 ppm (Diabrotica Balteata) | percent effect (mortality or growth inhibition) at 200 ppm (Euschistus heros) | mortality at 200 ppm [1] | mortality at 200 ppm (Myzus persicae [2]) | mortality at 24 ppm (Myzus persicae [3]) | percent effect (mortality or growth inhibition) at 200 ppm (Plutella xylostella) | percent control (mortality, anti-feedant effect or growth inhibition) at 200 ppm (Spodoptera littoralis [4]) | percent effect (mortality, anti-feeding or growth inhibition) at 12.5 ppm (Spodoptera littoralis [5]) | mortality at 200 ppm (Tetranychus urticae) | mortality at 200 ppm (Thrips tabaci) | pest or weed control at 200 ppm (Aedes aegypti) | pest or weed control at 200 ppm (Anopheles stephensi)
